Tests used:
[1] = molecular target: T1, recombinant human Cox-1 (r-hu Cox1) (Homo sapiens, UniProt P23219); experiment: Recombinant human PGHS-1 enzyme assay (RHUCX1); type: biochemical; settings: for inhibition at 100 µM / inhibition at 200 µM: read-out: RHUCX1 % Inh. at Dose
T1 construct: made in house; host or cells: baculovirus/Sf9 insect cells (microsomes)
Method in brief: (§1)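 Prostaglandin biosynthesis was measured as PGE2 output, read by enzyme immunoassay after a 2.5-minute room-temperature reaction stopped with HCl and neutralized with NaOH.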

[2] = molecular target: T2, recombinant human Cox-2 (r-hu Cox-2) (Homo sapiens, UniProt P35354); experiment: Recombinant human PGHS-2 enzyme assay (RHUCX2); type: biochemical; settings: for IC50: read-out: RHUCX2 IC50 (parenthetical value)
T2 construct: made in house; host or cells: baculovirus/Sf9 insect cells (microsomes)
T2 sequence (P35354 18-604): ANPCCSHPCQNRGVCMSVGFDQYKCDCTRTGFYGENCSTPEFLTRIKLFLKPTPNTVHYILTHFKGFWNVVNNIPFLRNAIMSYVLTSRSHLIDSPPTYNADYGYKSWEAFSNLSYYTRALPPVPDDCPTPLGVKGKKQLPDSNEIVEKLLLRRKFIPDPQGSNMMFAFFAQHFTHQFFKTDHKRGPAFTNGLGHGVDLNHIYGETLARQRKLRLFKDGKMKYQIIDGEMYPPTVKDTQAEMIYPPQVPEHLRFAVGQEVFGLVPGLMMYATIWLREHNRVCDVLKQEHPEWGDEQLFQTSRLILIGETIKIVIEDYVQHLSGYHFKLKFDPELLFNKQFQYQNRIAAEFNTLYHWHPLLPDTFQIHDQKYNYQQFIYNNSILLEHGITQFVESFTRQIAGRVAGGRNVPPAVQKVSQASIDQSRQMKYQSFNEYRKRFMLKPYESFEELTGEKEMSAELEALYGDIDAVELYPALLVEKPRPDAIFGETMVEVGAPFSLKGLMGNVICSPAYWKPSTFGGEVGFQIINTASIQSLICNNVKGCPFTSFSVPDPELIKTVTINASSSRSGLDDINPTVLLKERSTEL
Method in brief: as §1

[3] = molecular target: T3, Human Whole Platelet Cyclooxygenase-1 (Homo sapiens, UniProt P23219); experiment: Human Whole Platelet Cyclooxygenase-1 assay (HWPX); type: cell-based; settings: for IC50: read-out: HWPX IC50 (parenthetical value)
T3 construct: from tissue; host or cells: human blood: isolated platelets (A4) or heparinised whole blood (A9)
Method in brief: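 Washed platelets from healthy-donor ACD blood were pre-incubated with compound for 10 min, then stimulated with calcium ionophore A23187 (8.8 μM final) for 10 min. Reaction stopped with cold 6 mM EDTA; thromboxane in supernatants quantified with a commercial kit.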

[4] = molecular target: T4, human amnionic whole cell cyclooxygenase-2 (WISH cells) (Homo sapiens, UniProt P35354); experiment: IL-1β induced PGE2 production in WISH cells; type: cell-based; settings: read-out: Wish IC50 (parenthetical value)
T4 construct: endogenous in cells; host or cells: human amnionic WISH cells, induced with IL-1beta
T4 sequence (P35354 18-604): T2 sequence (P35354 18-604)
Method in brief: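 Confluent (80%) WISH cells were stimulated with 5 ng/ml IL-1β in serum-free Neuman-Tytell medium, with or without test compound in DMSO (0.01% v/v). PGE2 in the culture medium was measured by EIA against standards prepared in the same medium, read by optical density.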

[5] = test system: carrageenan induced paw edema; experiment: Carrageenan induced paw edema (CPE) in rats; type: in vivo; settings: rat; for inhibition in vivo at 10 mg/kg: read-out: CPE % Inhib. @ 10 mpk
Experimental: For oral administration, test compounds were suspended on the day of use in 100% polyethyleneglycol (PEG 400) with a motorized homogenizer equipped with a Teflon-coated pestle (TRI-R Instrument, Jamaica, N.Y.).
(§2) To compare the mean responses of the treatment groups, analysis of variance was applied. Percent inhibition values were determined by comparing the individual treatment mean values to the mean of the control group. Linear regression was used to estimate IC50's/ED50's in appropriate assays.
Hingpaw edema was […] in male rats as described by Winter et al., Proc. Soc. Exp. Biol. Med., 1962, 111, 544. Briefly, male Sprague-Dawley rats weighing between 170 and 190 g were administered test compounds orally 1 hour prior to the subplantar injection of 0.1 ml of 1% sodium carrageenan (lambda carrageenan, Sigma Chemical Co., St Louis, Mo.) into the right hindpaw. Right paw volumes (ml) were measured immediately following injection of carrageenan for baseline volume measurements using a Buxco plethysmograph (Buxco Electronics, Inc., Troy, N.Y.). Three hours after the injection of carrageenan, right paws were remeasured and paw edema calculated for each rat by subtracting the zero time reading from the 3 hour reading. Data are reported as mean percent inhibition +/−SEM. Statistical significance of results was analyzed by Dunnetts multiple comparison test where p<0.05 was considered statistically significant.

[6] = test system: air pouch prostaglandin biosynthesis (Cox-2); experiment: Carrageenan induced air pouch prostaglandin biosynthesis model (CAP); type: in vivo, rat; settings: for inhibition in vivo at 3 mg/kg: 4 h, read-out: CAP % Inhib. @ 3 mpk; for ED50: Rattus norvegicus
Experimental: as §2
Carrageenan induced air pouch prostaglandin biosynthesis model (CAP) Air pouches are formed in the backs of male Sprague Dawley rats by injecting 20 mL of sterile air on day 0. Three days later the pouch was reinflated with an additional 10 mL of sterile air. On day 7, 1 mL of saline containing 0.2 % lambda carrageenan (Sigma Chemical Co.) is injected into the pouch to induce the inflammatory reaction that is characterized by the release of prostaglandins. Test compounds are dosed at 0.1 to 10 mg/kg 30 minutes prior to carrageenan. Four hours after the carrageenan injection the pouch is lavaged and levels of prostaglandins are determined by enzyme immuno-assay using commercially available kits. […] Values for Cox-2 inhibition that are parenthetical indicate ED50 values.

[7] = 10 mpk oral, 3 hours after carrageenan

T3 sequence (P23219 24-599): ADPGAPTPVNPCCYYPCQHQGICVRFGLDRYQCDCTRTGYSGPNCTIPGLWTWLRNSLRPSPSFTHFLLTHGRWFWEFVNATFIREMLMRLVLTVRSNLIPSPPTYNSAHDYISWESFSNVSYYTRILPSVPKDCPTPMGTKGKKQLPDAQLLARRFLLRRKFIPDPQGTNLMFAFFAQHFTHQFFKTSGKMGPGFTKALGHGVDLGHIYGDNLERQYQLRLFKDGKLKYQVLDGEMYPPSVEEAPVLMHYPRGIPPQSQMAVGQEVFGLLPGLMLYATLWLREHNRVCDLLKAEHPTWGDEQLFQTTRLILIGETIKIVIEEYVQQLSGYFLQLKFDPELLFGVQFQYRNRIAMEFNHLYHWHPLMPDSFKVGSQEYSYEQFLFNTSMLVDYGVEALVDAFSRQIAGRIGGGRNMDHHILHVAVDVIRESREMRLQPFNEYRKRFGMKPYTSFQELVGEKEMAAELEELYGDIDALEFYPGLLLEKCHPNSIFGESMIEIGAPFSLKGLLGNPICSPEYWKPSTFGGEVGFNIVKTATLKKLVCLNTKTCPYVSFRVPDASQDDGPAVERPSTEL
T1 sequence (P23219 24-599): as above

| Structure (SMILES) | IC50 [2] [nM] | IC50 [4] [nM] | inhibition at 100 µM [1] [%] | IC50 [3] [nM] | inhibition in vivo at 10 mg/kg [5, 7] [%] | inhibition in vivo at 3 mg/kg ([6]; 3 mpk, rat) [%] | melting point [°C] | ED50 [6] [mg/kg] | further results |
| --- | --- | --- | --- | --- | --- | --- | --- | --- | --- |
| NS(=O)(=O)c1ccc(-c2cnn(-c3ccc(F)c(F)c3)c(=O)c2Oc2ccc(F)cc2)cc1 [Example 388, 2-(3,4-Difluophenyl)-4-(4-fluorophenoxy)-5-[4-(aminosulfonyl)phenyl]-3(2H)-pyridazinone] | 49 | 32 | – | – | – | – | – | – | RHUCX1 % Inh. at Dose (μM) ([1]; 1 μM): 36 @ 1%; RHUCX1 % Inh. at Dose (μM) ([1]; 10 μM): 74 @ 10%; HWPX % Inhib. at Dose (μM) ([3]; 0.3 μM): 0 @ .3%; CPE % Inhib. @ 10 mpk [5, 7]: 28%; CAP % Inhib. @ 3 mpk ([6]; 3 mpk, rat): 80% |
| CS(=O)(=O)c1ccc(-c2cnn(-c3ccc(F)c(F)c3)c(=O)c2Oc2ccc(F)cc2)cc1 [Example 109, 2-(3,4-Difluorophenyl)-4-(4-fluorophenoxy)-5-[4-(methylsulfonyl)phenyl]-3(2H)-pyridazinone] | 147 | 18 | 6 | 2690 | 13 | 71 | 178 to 180 | – | – |
| CC(=O)CCOc1c(-c2ccc(S(C)(=O)=O)cc2)cnn(-c2ccc(F)c(F)c2)c1=O [Example 467, 2-(3,4-Difluorophenyl)-4-(3-oxo-1-butoxy)-5-[4-(methylsulfonyl)phenyl]-3(2H)-pyridazinone] | 1960 | 135 | 4 | – | – | – | 134 to 135 | 0.4 | CPE ED30 ([5]; oral): ED30 = 1.7 |
| CC(C)CCOc1c(-c2ccc(S(C)(=O)=O)cc2)cnn(-c2ccc(F)c(F)c2)c1=O [Example 347, 2-(3,4-Difluorophenyl)-4-(3-methyl-1-butoxy)-5-[4-(methylsulfonyl)phenyl]-3(2H)-pyridazinone] | 75 | – | 11 | – | 27 | 66.5 | 121 to 123 | – | – |
| CC(C)(C)COc1c(-c2ccc(S(N)(=O)=O)cc2)cnn(-c2ccc(F)c(F)c2)c1=O [Example 406, 2-(3,4-Difluorophenyl)-4-(2,2-dimethylpropoxy)-5-[4-(aminosulfonyl)phenyl]-3(2H)-pyridazinone] | – | 26 | 23 | 1610 | 23 | 66.5 | 173 to 175 | – | inhibition at 0.01 µM ([2]; 0.01 μM, read-out: RHUCX2 % Inh. at Dose): 18%; inhibition at 0.1 µM ([2]; 0.1 μM, read-out: RHUCX2 % Inh. at Dose): 64%; inhibition at 1 µM ([2]; 1 μM, read-out: RHUCX2 % Inh. at Dose): 100% |
| CC(C)CCc1c(-c2ccc(S(N)(=O)=O)cc2)cnn(-c2ccc(F)cc2)c1=O [Example 396, 2-(4-Fluorophenyl)-4-(3-methylbutyl)-5-[4-(aminosulfonyl)phenyl]-3(2H)-pyridazinone] | 59 | 20 | 22 | 12700 | 23 | 85 | 180 to 183 | – | – |
| CC(=O)NS(=O)(=O)c1ccc(-c2cnn(CC(F)(F)F)c(=O)c2OCC(C)(C)CO)cc1 [Example 528, N-[[4-[2-(2,2,2-Trifluoroethyl)-4-(3-hydroxy-2,2-dimethyl-1-propoxy)-2H-pyridazin-3-on-5-yl]phenyl]sulfonyl]acetamide] | 720 | 54 | – | 3500 | 40 | – | – | 1.4 | IC50 ([1]; read-out: RHUCX1 IC50 (parenthetical value)): 3400 nM |
| CC(C)CCOc1c(-c2ccc(S(C)(=O)=O)cc2)cnn(-c2cccc(Cl)c2)c1=O [Example 339, 2-(3-Chlorophenyl)-4-(3-methylbutoxy)-5-[4-(methylsulfonyl)phenyl]-3(2H)-pyridazinone] | 88 | 26 | 2 | 393 | 43 | 90.5 | 134 to 135 | 0.58 | – |
| CS(=O)(=O)c1ccc(-c2cnn(-c3cccc(Cl)c3)c(=O)c2Oc2ccc(F)cc2)cc1 [Example 112, 2-(3-Chlorophenyl)-4-(4-fluorophenoxy)-5-[4-(methylsulfonyl)phenyl]-3(2H)-pyridazinone] | 136 | – | 5 | – | 21 | 42.5 | 211 to 213 | – | – |
| CC(C)(O)CCOc1c(-c2ccc(S(C)(=O)=O)cc2)cnn(-c2cccc(Cl)c2)c1=O [Example 475, 2-(3-Chlorophenyl)-4-(3-hydroxy-3-methyl-1-butoxy)-5-[4-(methylsulfonyl)phenyl]-3(2H)-pyridazinone] | 710 | 440 | 0 | – | 33 | – | – | 1.4 | inhibition at 100 µM ([3]; 100 μM, read-out: HWPX % Inhib. at Dose): 50% |
| CC(C)(C)COc1c(-c2ccc(S(N)(=O)=O)cc2)cnn(CC(F)(F)F)c1=O [Example 446] | 373 | 20 | – | 24400 | 44 | 92 | 123 to 124 | 0.5 | inhibition at 200 µM [1]: 0% |
| CC(C)COc1c(-c2ccc(S(C)(=O)=O)cc2)cnn(-c2ccc(F)cc2)c1=O [Example 376, 2-(4-Fluorophenyl)-4-(2-methylpropoxy)-5-[4-(methylsulfonyl)phenyl]-3(2H)-pyridazinone] | 27 | – | 12 | – | 17 | 77.5 | 121 to 128 | – | – |
| CC(C)CCc1c(-c2ccc(S(N)(=O)=O)c(F)c2)cnn(CC(F)(F)F)c1=O [Example 226] | 1090 | – | 0 | – | 21 | 40.5 | – | – | – |
| CS(=O)(=O)c1ccc(-c2cnn(-c3ccc(F)c(F)c3)c(=O)c2-c2ccc(Cl)cc2)cc1 [Example 106, 2-(3,4-Difluorophenyl)-4-(4-chlorophenyl)-5-[4-(methylsulfonyl)phenyl]-3(2H)-pyridazinone] | 135 | 30 | – | 17500 | – | 47 | 187 to 188 | – | inhibition at 200 µM [1]: 19% |
